In a melting point compilation (Tetko et al.; mined from patent text by program, amines drawn as free bases though some values may be those of a salt):

In the case of `O=C1C(=O)N(Cc2ccc(Br)cc2)c2ccc(S(=O)(=O)N3CCCC3COc3ccccc3)cc21` (stereo not given), the melting point is reported as 112 to 113 °C.
`O=C(O)CCCC(=O)NCCCCCC1CCSS1` (stereo not given) showed a melting point of 60 to 62 °C.
`CCOc1ccc(-c2ccc(C3(O)CN4CCC3CC4)cc2)cc1` (stereo not given) gave a melting point of 199 to 200 °C.
In the case of `N#CN1C(=O)c2ccccc2C1=O`, the melting point is reported as 189 to 191 °C.
With `CCCCCCCCCCCC(=O)NCCCCCC(=O)OO` the melting point was 70 to 75 °C.
With `CC(=O)c1ccccc1NC(=O)Cc1ccccc1` the melting point was 78 °C.
Work on `O=C(COCc1cc(Br)cc2[nH]c(=O)c(=O)[nH]c12)Nc1ccccc1` yielded a melting point greater than 250 °C.
With `CN(C)c1ccc(C2(c3ccccc3)Oc3ccccc3-c3[nH]c4ccccc4c32)cc1` (stereo not given) the melting point was 229 °C.
With `NC(=O)N(O)CCNS(=O)(=O)c1ccc2ccccc2c1` the melting point was 174 °C.
Work on `CCCC1=C(C(=O)OCC)C(C(C)C)n2ncc(C(=O)OCC)c2N1Cc1ccc(-c2ccccc2-c2nnn[nH]2)cc1` (stereo not given) yielded a melting point of 183 to 184 °C.
Compound `CNCC(=O)Nc1ccc(S(=O)(=O)c2cccc(Cl)c2)cc1` has a melting point of 110 to 112 °C.
With `CC1CCC(C(C)C)C(OC(=O)N2CC(=O)N(C)c3ccc(Cl)cc3C2c2ccccc2)C1` (stereo not given) the melting point was 144 °C.
`N#Cc1c(C(=O)O)nn(-c2ccc(Cl)cc2Cl)c1-c1ccc(Cl)cc1` gave a melting point of 132 to 137 °C.
For `COc1c(C)cnc(CO)c1C`, the melting point was 49 to 51 °C.
Work on `O=C(O)C=Cc1cc(=O)c(OCc2ccccc2)c[nH]1` yielded a melting point of 236 °C.
For `Cc1ccc2c(c1)C(=O)c1nc3ccccc3c(=O)n1-2`, the melting point was 283 to 285 °C.
In the case of `O=C(CCCN1CCN(c2cc(-c3ccc(F)cc3)c3c(n2)CCC3)CC1)c1ccc(F)cc1`, the melting point is reported as 115 to 116 °C.
`Nc1c(Cl)cc(C(O)CNCCCCCCOCCCCCCc2ncccn2)cc1Cl` (stereo not given) gave a melting point of 55 to 57 °C.
In the case of `N#CC1CC2(c3ccccc3)SC13c1ccccc1CCN3C2=O` (stereo not given), the melting point is reported as 225 to 226 °C.
Work on `CCOC(=O)CCCc1sc(N)nc1-c1ccc(Cl)cc1` yielded a melting point of 114 to 115 °C.
Work on `COc1nc2c(Cl)c(Cl)c(Cl)c(Cl)c2n1COCCO` yielded a melting point of 139 °C.
Work on `CCNC(=O)c1cccc(F)c1[Si](C)(C)C` yielded a melting point of 80 to 82 °C.
With `CCCCC(CC)COc1ccc(-n2c(C)cc(=O)cc2C)cc1` (stereo not given) the melting point was 143 °C.
For `Nc1nccc(-c2cccc(OCC(O)CN3CCN(c4ccc(Cl)cc4)CC3)c2)n1` (stereo not given), the melting point was 141 to 142 °C.
Work on `COc1ccccc1N1CCN([C@@H]2Cc3c(O)ccc(O)c3C[C@H]2O)CC1` (relative stereo) yielded a melting point of 222 to 224 °C.
`CN(C)C(=O)N(COCCCl)c1ccc(C(F)(F)F)cc1` showed a melting point of 39 °C.
In the case of `COC(=O)C(C)(C)Cc1c(SC(C)(C)C)c2cc(OCc3ccc4cnccc4n3)ccc2n1Cc1ccc(Cl)cc1`, the melting point is reported as 152 to 155 °C.
`CC(C)c1nc2c3c(c(C(=O)N(C)C)cc2n1C)CCC(c1ccccc1)O3` (stereo not given) showed a melting point of 179 to 180 °C.
Work on `COc1cc2c(cc1Nc1ncc(Cl)c(N[C@@H]3CCCC[C@H]3NS(C)(=O)=O)n1)NC(=O)CN(CC1CC1)C2` yielded a melting point of 97 °C.
`CC1(C)CNC(=O)c2c1ccc1nc(Nc3c(Cl)cccc3Cl)[nH]c21` gave a melting point of 287 to 290 °C.
In the case of `CCCCCCN1c2ccccc2NC(=O)c2cscc21`, the melting point is reported as 112 to 113 °C.
Work on `CC(c1ccc(Cl)cc1Cl)C1(c2cccnc2)OC=CC1=O` (stereo not given) yielded a melting point of 111 to 112 °C.
In the case of `OCc1ccc(Nc2nc(Oc3ccccc3)nc(Oc3ccccc3)n2)cc1`, the melting point is reported as 152 to 154 °C.
Compound `CC(C)(C)n1cc(-c2ccc(I)cc2)c2c(N)ncnc21` has a melting point of 188 to 189 °C.
`CCCOC(=O)c1cn(CC)c2nc(N3CCNCC3)c(F)cc2c1=O` showed a melting point of 133 to 135 °C.
In the case of `Cc1ccc(NC(=O)c2cccc(N3CCOCC3)c2)cc1N`, the melting point is reported as 192 to 193 °C.
`COc1cc(N2CCN(c3c(C)c(C)c4c(c3C)CC(C)(C)O4)CC2)ccc1F` showed a melting point of 152 to 155 °C.
`N#CCNCNCC#N` showed a melting point of 83 to 85 °C.
In the case of `CN(C)CCN(C1CCN(C)CC1)S(=O)(=O)c1ccc(Nc2nccc(Nc3ccc(F)cc3)n2)cc1`, the melting point is reported as 135 to 137 °C.
Compound `CC(=O)NC(c1ccc(F)cc1)(c1cc2c3c(c1)c(-c1cccc(Cl)c1)cc(=O)n3CC2)c1nncn1C` (stereo not given) has a melting point of 196 °C.
Compound `CN(C(=O)c1ccc2nonc2c1)C1CC=C(F)CC1` (stereo not given) has a melting point of 117 to 118 °C.
`CONC(=O)C(Cl)=Cc1cc(-n2c(=O)cc(C(F)(F)F)n(C)c2=O)ccc1Cl` showed a melting point of 136 to 141 °C.
For `N#Cc1cnc2c(oc3ccccc32)c1O`, the melting point was greater than 310 °C.
For `COC(=O)Cc1ccc(OCCNC(=O)C2Cc3ccccc3N2S(=O)(=O)c2ccc(-c3cc(Cl)ccc3Cl)cc2)cc1` (stereo not given), the melting point was 61 to 65 °C.
With `CC(C)(C)OC(=O)N1CCc2cc(OCc3ccccc3)c(OCc3ccccc3)cc2C1Cc1ccc(N)c(I)c1` (stereo not given) the melting point was 169 to 171 °C.
For `CCOC(=O)C1=C(N2CCCC2)N=C(C)C(C(C)=O)C1c1cccc([N+](=O)[O-])c1` (stereo not given), the melting point was 130 °C.
`c1cn(CCCCn2ccnc2)cn1` gave a melting point of 84 to 86 °C.
Work on `CCN(CC)C(=O)C(C#N)=Cc1cc(O)c(O)c([N+](=O)[O-])c1` yielded a melting point of 156 to 160 °C.
`CC(C)(C)OC(=O)CN(C(=O)CNC(=O)Nc1ccccc1)c1ccccc1C(=O)c1ccccc1` showed a melting point of 166 to 167 °C.
Work on `O=C(NCc1ccc(F)cc1)c1cccnc1Oc1ccc(F)cc1` yielded a melting point of 136 to 138 °C.
Work on `CC1(C)COC1(Cn1cncn1)c1ccc(F)cc1F` (stereo not given) yielded a melting point of 76 to 78 °C.
Compound `O=S(=O)(O)c1ccc(OC2=C(Oc3ccc(S(=O)(=O)O)cc3)C(F)(F)C(F)(F)C2(F)F)cc1` has a melting point of 251 to 255 °C.
`COc1cc2c(cc1OC)C(C)C(C)=NN=C2c1cccc(Cl)c1` (stereo not given) showed a melting point of 156 to 158 °C.
With `CCSCCOC(=O)C(=O)Nc1nc(-c2ccccc2)cs1` the melting point was 148 to 149 °C.
Work on `Cc1nc(N)c2nc(C)n(CCCCCS(=O)(=O)c3ccccc3)c2c1C` yielded a melting point of 166 to 167 °C.
Compound `O=Cc1ccc(CC(=O)OCc2ccccc2)cc1` has a melting point of 54 to 55 °C.
`Cc1ccccc1NS(=O)(=O)c1ccc(Br)cc1` gave a melting point of 114 °C.
In the case of `COC(=O)c1ccccc1-c1nc2cc(CBr)ccc2o1`, the melting point is reported as 92 to 95 °C.
`Fc1ccc(-c2cc(Cl)c3cc(Cl)ccc3n2)cc1` gave a melting point of 150 to 156 °C.
In the case of `Cc1c(C=NO)c2cc(Br)ccc2n1-c1ccc(O)cc1`, the melting point is reported as 209 to 211 °C.
With `Cc1ccc2c(=O)c3cc(F)ccc3sc2c1` the melting point was 166 to 170 °C.
With `COc1ccccc1CNC1CCN(C2CCN(C(=O)c3cc(C)cc(C)c3)C(Cc3ccccc3)C2)CC1` (stereo not given) the melting point was 71.2 °C.
In the case of `COC(=O)N(N=Nc1cc(C(F)(F)F)ccc1C#N)c1cc(C(F)(F)F)ccc1C#N`, the melting point is reported as 88 to 90 °C.
`COC(=O)C1C=CCN2C(=O)C(C)(CCOC3CCCCO3)C(=O)N12` (stereo not given) gave a melting point of 128 °C.
`CC(=O)NCc1c(C)cc(CCl)cc1C` showed a melting point of 193 to 194 °C.
In the case of `O=C(O)CCc1cnoc1-c1ccc(Br)cc1`, the melting point is reported as 164 to 165 °C.
`O=C(OC1C(OCCBr)OC(COCc2ccccc2)C(O)C1OC(=O)c1ccccc1)c1ccccc1` (stereo not given) showed a melting point of 78 to 80 °C.
For `O=c1[nH]c2c(Cl)cccc2c(=O)o1`, the melting point was 225 to 230 °C.
`N#CCOc1ccc(Cl)c(Cl)c1` gave a melting point of 61 to 62 °C.
Compound `COC(=O)c1ccc2c(c1)N(C)C(=O)c1cccnc1N2` has a melting point of 273 to 276 °C.
For `CC(C)N(C(N)=S)c1ccc2c(c1)OCO2`, the melting point was 149 to 151 °C.
Compound `COc1nn(CC(C)=O)c(=O)s1` has a melting point of 66 to 67 °C.
For `CCOC(=O)C(O)c1oc(-n2ccnc2C)nc1-c1ccc(Cl)cc1` (stereo not given), the melting point was 197 to 198 °C.
With `COCC(C)NC1=NS(=O)(=O)c2cc(Cl)cnc2N1` (stereo not given) the melting point was 150 to 156 °C.
`CCC(=O)N(N(CCCl)S(C)(=O)=O)S(C)(=O)=O` showed a melting point of 97 to 98 °C.
Compound `COc1ccc(CN2CCN(CCCOc3ccc4c(C)cc(=O)[nH]c4c3)CC2)cc1` has a melting point of 167 to 168 °C.
Compound `COC(=O)C1=C(O)c2cc(Cl)sc2S(=O)(=O)N1` has a melting point of 173 to 174 °C.
Compound `CCN1C(=O)NC(=C(C(C)=O)C(C)=O)C1=O` has a melting point of 152 to 153 °C.
Compound `Cc1cc(C)c2c(c1C)OC(C)(C)C2c1ccccc1` (stereo not given) has a melting point of 86 to 87 °C.
Compound `NC(=O)[C@@H]1[C@H](Nc2c(Cl)cnc3[nH]c(-c4cnn(C5CCNCC5)c4)nc23)[C@H]2C=C[C@@H]1C2` has a melting point of 203 to 205 °C.
For `O=C(O)C=Cc1ccccc1NC(=O)c1ccc(OCCCCc2ccccc2)cc1`, the melting point was 129 to 131 °C.
`COc1ccc(-c2cc3ncccc3c(Cl)n2)cc1` showed a melting point of 126 to 127 °C.
For `O=C1OCc2c(c3cc(-c4ccc(OC(F)(F)F)cc4)ccc3n2Cc2ccccc2)C1=O`, the melting point was 239 to 240 °C.
With `CC1(C)Cc2nc(C3CCCC3)c(C(=O)c3ccc(C(F)(F)F)cc3)c(-c3ccc(F)c(F)c3)c2C(O[Si](C)(C)C(C)(C)C)C1` (stereo not given) the melting point was 128 to 129 °C.
In the case of `CSc1sc(-c2ccn(C)n2)c2c1C(=O)C(=CO)C(C)(C)C2`, the melting point is reported as 145 to 148 °C.
`CN1C(=O)CN=C(c2cccc(C(F)(F)F)c2)c2ccccc21` showed a melting point of 121 to 122 °C.
Compound `O=C(Nc1ccc(F)c(CBr)c1)c1ccccn1` has a melting point of 137 to 138 °C.
`CN(C(=O)CCSC(c1ccccc1)(c1ccccc1)c1ccccc1)c1cn(-c2cccnc2)nc1Cl` showed a melting point of 62 to 64 °C.
`Cc1nc2ccccc2n2cnc(C(=O)OC(C)(C)C)c12` showed a melting point of 176 to 177 °C.
In the case of `N#CC=Cc1ccc(F)c(Cl)c1F`, the melting point is reported as 76 to 77 °C.
`COc1ccc(-c2ccncc2OC2SCC(OC(C)=O)C(OC(C)=O)C2OC(C)=O)cc1` (stereo not given) showed a melting point of 193 °C.
`COc1cc(Cc2cnc(NC=O)nc2N)cc(OC)c1OC` showed a melting point of 240 to 242 °C.
`CC1(C)COC(=O)N1c1nc(-c2cccc([N+](=O)[O-])c2)cs1` gave a melting point greater than 210 °C.
With `c1ccc(N2CCN(CCc3cc4ccccc4[nH]3)CC2)cc1` the melting point was 184 to 186 °C.
In the case of `CCOC(=O)c1c(N)c2cccnc2n(C2CCCCC2)c1=O`, the melting point is reported as 172 to 175 °C.
`Clc1ccc(Oc2ccc(N3CCNCC3)nc2)cc1` showed a melting point of 98 to 100 °C.
For `CCOC(=O)C1=CC(OC)(C(C)(C)C)N(c2ccc(Cl)cc2Cl)N1` (stereo not given), the melting point was 130 to 133 °C.
For `CC(C)N(CCOc1cccc2nc(Cl)c3ccccc3c12)C(C)C`, the melting point was 88 to 91 °C.
For `O=[N+]([O-])c1cnc2ccc(-c3ccccc3)cc2c1Nc1ccccc1Br`, the melting point was 198 to 204 °C.
In the case of `N#Cc1cnc2cc3cc(O)c(O)cc3cc2c1Nc1ccc(Cl)cc1Cl`, the melting point is reported as greater than 260 °C.
